Earlier results in patent publication US20030232367A1, “Differentially expressed genes involved in angiogenesis, the proteins encoded thereby, and methods of using the same” (priority 2002, published 2003).

System: vascular endothelial cell proliferation
Settings: endothelial vs tumor cell proliferation (Ingber et al. 1990)

CO[C@@H]1[C@H](OC(=O)NC(=O)CCl)CC[C@]2(CO2)[C@H]1[C@@]1(C)O[C@@H]1CC=C(C)C [AGM-1470]
half-maximal inhibition of vascular endothelial cell proliferation at lower concentration than tumor cell proliferation: 4 logs
